Like-named read-outs stand apart in the source and are kept apart here.

In one test the target is TRKB (Homo sapiens (Human), UniProt Q16620). Nature of the test: Inhibitory activity on TRKB (ADP-Glo Kinase Assay).
The target of another test is RET (Homo sapiens (Human), UniProt P07949). Kind of test: Inhibitory activity on RET kinase (HTRF KinEASE-TK). It is filed as biochemical. To be noted: ATP 16 μM. An excerpt: 3) Formulate 2.5× kinase with 1× kinase reaction buffer.
For orientation: TR-FRET usually uses a lanthanide donor and a delayed reading to cut background.

The next test has as its target TRKA (Homo sapiens (Human), UniProt P04629). Kind of test: Inhibitory activity on TRKA (ADP-Glo Kinase Assay).
A further test has as its target TRKC (Homo sapiens (Human), UniProt Q16288). Kind of test: Inhibitory activity on TRKC (ADP-Glo Kinase Assay). (In general: In ADP-Glo the light output rises with the ADP produced.)
For test [1], the system named is allergic rhinitis model in mice. Kind of test: Allergic rhinitis model in mice (OVA). The format is in vivo, BALB/C mice. As to conditions: for Rhinitis behavioral scoring: 7-day treatment, MDI-1233 10 mg/kg, MDI-1228 3 mg/kg, fluticasone propionate positive control. Here is the method:
42-49 day-old BALB/C mice (Manufacturer: Liaoning Changsheng Biotechnology Co., Ltd., License Number: SCXK(therapeutic)2015-0001), both male and female, were reared under conventional diet, at a temperature of 20 to 26° C., and a humidity of 40% to 70%. Animal grouping and modeling: • 1. Blank control group (no treatment) • 2. Allergic rhinitis group (vehicle treatment: saline containing 0.2% Tween 80) • 3. Allergic rhinitis+compound MDI-1233: 1 mg/kg • 4. Allergic rhinitis+compound MDI-1233: 3 mg/kg • 5. Allergic rhinitis+compound MDI-1233: 10 mg/kg • 6. Allergic rhinitis+compound MDI-1228: 3 mg/kg • 7. Allergic rhinitis+compound MDI-1288: 3 mg/kg • 8. Allergic rhinitis+positive control group (Fluticasone propionate, GlaxoSmithKline, E88D
The preparation of an AR model in mice involved sensitizing and challenging BALB/c mice with ovalbumin (OVA) to simulate an acute symptoms caused by natural exposure to an allergen. The experimental animals were weighed and separated by gender. Sensitization was performed on days 1, 5, 9, and 12. From day 13, a daily challenge was carried out for 7 consecutive days. After the last challenge, behavior of the mice was observed and scored. The sensitization method involved intraperitoneal injection of an OVA (Sigma, A5503-1G) suspension in 50 μg/ml in which the OVA suspension was prepared by dissolving 500 μg of ovalbumin and 50 mg of AL(OH)3 (CAS 21645-51-2) into 10 ml of normal saline, pH 7.4, with 200 μl injected per mouse. […] On day 12, a single nasal challenge with 10% OVA was performed (PBS was used for the control group). Scoring was conducted according to the table below, using a superposition method to calculate the total score. A total score greater than 5 was considered as successful. Subsequent experiments were conducted after the modeling was deemed successful.
From day 13, compound administration and challenge were conducted. The compound administration method involved calculating the nasal drops volume according to the mouse's body weight and group requirements, and dissolving the compounds MDI-1233, MDI-1228, MDI-1288 into normal saline containing 0.2% Tween 80 at specific concentrations. The administration was given 30 minutes before the challenge, twice a day. The positive control treatment involved administering nasal drop once (10 μl per side) 30 minutes before OVA nasal stimulation, twice a day. Thirty minutes after the second drug administration, a 10% OVA challenge was conducted, and the amount of nasal discharge, sneezing, and nose scratching were observed and recorded within 30 minutes after each challenge and then scored. The control group was treated with normal saline nasal drops.
After the rhinitis modeling was completed and the scores were stable, mice of each group were anesthetized and sacrificed after a 20-day scoring. Samples were collected, and peripheral serum was obtained by collecting whole blood, and standing it at room temperature for 1 hour and then centrifuging it to collect the supernatant for ELISA detection; nasal mucosa was taken for HE staining (fixed with 10% formalin); and the supernatant of nasal lavage fluid was taken for ELISA detection.
(1) HE Staining: The tissue was rinsed with running water for several hours, dehydrated through a series of ethanol solutions (70%, 80%, 90%), and then treated with a mixture of pure alcohol and xylene for 15 minutes, followed by xylene I for 15 minutes and xylene I1 for 15 minutes (until transparent). The tissue was then placed in a mixture of xylene and paraffin at a volume ratio of 1:1 for 15 minutes, followed by immersion with paraffin I and paraffin II each for 50-60 minutes. The tissue was embedded in paraffin and sectioned, and the sections were spreaded, dried, dewaxed and hydrated in distilled water. […]

Test [2] concerns ovalbumin-induced asthma model in mice. Kind of test: Ovalbumin-induced asthma model in mice. The format is in vivo, Balb/c mice. As to conditions: nasal administration BID 5 days: MDI-1228 3 mg/kg, MDI-1288 3 mg/kg, MDI-1233 1, 3, 10 mg/kg. The method, then: After 7 days of acclimatization, animals were randomly grouped based on their body weight. The experiment was divided into 8 groups, with 8 mice in each group, as detailed in the table below.
• Preparation of Immunogen: Weigh an appropriate amount of OVA, to which an appropriate amount of PBS was added, to achieve a final concentration of 0.1 mg/ml. Then, an equal volume of aluminum adjuvant was added, and the resulting mixture was mixed well, and stored at 4° C., which was prepared before use. • Preparation of Sensitizer (5% OVA): Weigh an appropriate amount of OVA, to which an appropriate amount of PBS was added, to achieve a final concentration of 5%. The resulting mixture was mixed well, and store it at 4° C. for later use, which was prepared before use. • Preparation of Vehicle: Add 200 μl of Tween 80 to 100 ml of saline, and mix it well. […] Mix it well, and store it at 4° C. for later use. […] Mix it well, and store it at 4° C. for later use. […] Mix it well, and store it at 4° C. for later use. The solution was prepared once every three days.
• Immunization: On days 0, 7, 14, and 21, 200 μl of PBS was injected intraperitoneally for the first group, and 200 μl of (10 μg) OVA/aluminum adjuvant emulsion was injected intraperitoneally for groups 2-8. • Sensitization: From days 28 to 32, the first group of animals was exposed to nebulized PBS in a nebulization box for 20 minutes, and the groups 2-8 were exposed to nebulized 5% OVA in a nebulization box for 20 minutes. And then, they were removed. The sensitization was conducted at 12:30 PM daily. • Administration: The medicine was administrated twice a day at 9 AM and 5 PM via nasal drops. Dexamethasone (Dex) was administered by gavage once a day at 9 AM.
Serum IgE: Blood was collected from the orbits of animals after carbon dioxide euthanasia, and plasma was separated and stored at −40 degrees for plasma IgE detection.
Bronchoalveolar Lavage Fluid (BALF) Cell Count: An appropriate amount of foetal bovine serum was weighted and dissolved in PBS to a final concentration of 1%. After orbital blood collection, the trachea was exposed, and a 1 ml syringe needle was replaced with a mouse gavage needle. 0.8 ml of the lavage fluid was aspirated from the syringe and the lungs were lavaged three times. The lavage fluids were collected, and centrifuged at 1000 rpm for 10 minutes, and the supernatant was collected and stored at −40 degrees Celsius. Cells were resuspended with 1 ml of PBS and counted. 100 ul of centrifuged smear was taken and stained with Diff quick and the number of eosinophils, basophils, lymphocytes and macrophages were recorded.
Bronchoalveolar Lavage Fluid IL-5: Bronchoalveolar lavage fluid was collected to detect IL-5.
Pathological scoring criteria were: • A) 0 points: No lymphocyte infiltration; • B) 1 point: Trace lymphocyte infiltration; • C) 2 points: Mild lymphocyte infiltration; • D) 3 points: Moderate lymphocyte infiltration; • E) 4 points: Severe lymphocyte infiltration; • After scoring, the results were calculated and analyzed.

Setting [3] is: nasal drops twice a day, MDI-1288 3 mg/kg.
Setting [4] is: vs. vehicle (model) group, dexamethasone 1 mg/kg gavage QD.

Chain of TRKA (P04629 33-796 limits assumed): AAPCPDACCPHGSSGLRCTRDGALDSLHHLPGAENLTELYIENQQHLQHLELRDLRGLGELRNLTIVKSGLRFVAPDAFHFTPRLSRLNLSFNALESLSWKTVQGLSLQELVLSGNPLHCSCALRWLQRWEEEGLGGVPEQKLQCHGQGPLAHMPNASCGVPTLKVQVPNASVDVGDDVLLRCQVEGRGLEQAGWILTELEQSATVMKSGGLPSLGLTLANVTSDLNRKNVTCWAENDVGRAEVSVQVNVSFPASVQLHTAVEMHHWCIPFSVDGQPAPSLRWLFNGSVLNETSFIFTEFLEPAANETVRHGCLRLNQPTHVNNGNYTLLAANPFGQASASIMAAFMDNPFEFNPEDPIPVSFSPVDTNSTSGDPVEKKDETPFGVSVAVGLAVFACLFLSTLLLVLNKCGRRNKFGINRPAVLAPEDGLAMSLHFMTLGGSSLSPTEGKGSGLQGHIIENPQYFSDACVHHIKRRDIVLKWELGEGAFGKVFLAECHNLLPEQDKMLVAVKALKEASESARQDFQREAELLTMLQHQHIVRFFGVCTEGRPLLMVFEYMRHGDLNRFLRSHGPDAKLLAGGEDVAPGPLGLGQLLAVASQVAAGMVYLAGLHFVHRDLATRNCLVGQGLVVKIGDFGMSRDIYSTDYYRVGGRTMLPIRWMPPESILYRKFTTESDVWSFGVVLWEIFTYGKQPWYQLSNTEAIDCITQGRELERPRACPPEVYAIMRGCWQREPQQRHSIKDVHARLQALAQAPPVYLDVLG
Chain of TRKB (Q16620 32-822): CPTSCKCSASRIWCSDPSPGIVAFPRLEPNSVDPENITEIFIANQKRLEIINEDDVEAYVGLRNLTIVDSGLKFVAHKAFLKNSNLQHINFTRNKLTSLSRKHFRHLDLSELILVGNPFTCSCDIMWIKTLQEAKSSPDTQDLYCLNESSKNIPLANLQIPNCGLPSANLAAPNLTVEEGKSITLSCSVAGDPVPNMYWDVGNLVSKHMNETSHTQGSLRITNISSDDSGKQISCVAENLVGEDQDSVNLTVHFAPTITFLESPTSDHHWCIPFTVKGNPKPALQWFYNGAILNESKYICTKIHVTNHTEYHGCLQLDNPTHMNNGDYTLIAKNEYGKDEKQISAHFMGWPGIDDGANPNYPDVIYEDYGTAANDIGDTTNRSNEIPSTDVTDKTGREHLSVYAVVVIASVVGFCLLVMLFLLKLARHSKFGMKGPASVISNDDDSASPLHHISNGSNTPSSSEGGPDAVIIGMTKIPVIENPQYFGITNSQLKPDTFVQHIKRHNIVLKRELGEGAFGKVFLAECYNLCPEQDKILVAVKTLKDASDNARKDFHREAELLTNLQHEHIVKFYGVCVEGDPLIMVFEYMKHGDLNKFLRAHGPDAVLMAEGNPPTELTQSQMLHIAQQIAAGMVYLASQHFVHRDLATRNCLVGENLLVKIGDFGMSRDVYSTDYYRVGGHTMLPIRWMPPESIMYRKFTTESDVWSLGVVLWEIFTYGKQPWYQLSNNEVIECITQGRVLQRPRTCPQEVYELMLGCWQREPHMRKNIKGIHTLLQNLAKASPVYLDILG
Chain of TRKC (Q16288 32-839): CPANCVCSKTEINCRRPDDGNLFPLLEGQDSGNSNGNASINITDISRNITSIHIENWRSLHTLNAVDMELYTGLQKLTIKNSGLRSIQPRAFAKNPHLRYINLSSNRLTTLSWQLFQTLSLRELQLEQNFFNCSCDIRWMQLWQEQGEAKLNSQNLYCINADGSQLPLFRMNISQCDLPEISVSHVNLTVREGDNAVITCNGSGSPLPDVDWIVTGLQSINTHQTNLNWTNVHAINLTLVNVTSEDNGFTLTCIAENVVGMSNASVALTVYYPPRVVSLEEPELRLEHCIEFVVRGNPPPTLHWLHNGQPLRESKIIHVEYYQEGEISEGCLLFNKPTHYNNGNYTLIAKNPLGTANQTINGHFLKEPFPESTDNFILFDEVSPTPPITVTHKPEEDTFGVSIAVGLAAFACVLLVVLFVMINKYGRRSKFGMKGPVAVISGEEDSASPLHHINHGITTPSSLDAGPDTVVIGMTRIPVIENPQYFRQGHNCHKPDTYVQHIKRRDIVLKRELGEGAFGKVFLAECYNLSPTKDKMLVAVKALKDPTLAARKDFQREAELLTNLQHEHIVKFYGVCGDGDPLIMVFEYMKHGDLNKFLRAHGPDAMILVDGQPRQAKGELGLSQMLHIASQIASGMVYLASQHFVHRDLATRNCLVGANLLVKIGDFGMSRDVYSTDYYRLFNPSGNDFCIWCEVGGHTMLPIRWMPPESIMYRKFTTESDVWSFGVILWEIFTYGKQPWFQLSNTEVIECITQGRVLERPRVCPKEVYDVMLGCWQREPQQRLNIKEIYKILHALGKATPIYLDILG
Chain of RET (P07949 29-1114): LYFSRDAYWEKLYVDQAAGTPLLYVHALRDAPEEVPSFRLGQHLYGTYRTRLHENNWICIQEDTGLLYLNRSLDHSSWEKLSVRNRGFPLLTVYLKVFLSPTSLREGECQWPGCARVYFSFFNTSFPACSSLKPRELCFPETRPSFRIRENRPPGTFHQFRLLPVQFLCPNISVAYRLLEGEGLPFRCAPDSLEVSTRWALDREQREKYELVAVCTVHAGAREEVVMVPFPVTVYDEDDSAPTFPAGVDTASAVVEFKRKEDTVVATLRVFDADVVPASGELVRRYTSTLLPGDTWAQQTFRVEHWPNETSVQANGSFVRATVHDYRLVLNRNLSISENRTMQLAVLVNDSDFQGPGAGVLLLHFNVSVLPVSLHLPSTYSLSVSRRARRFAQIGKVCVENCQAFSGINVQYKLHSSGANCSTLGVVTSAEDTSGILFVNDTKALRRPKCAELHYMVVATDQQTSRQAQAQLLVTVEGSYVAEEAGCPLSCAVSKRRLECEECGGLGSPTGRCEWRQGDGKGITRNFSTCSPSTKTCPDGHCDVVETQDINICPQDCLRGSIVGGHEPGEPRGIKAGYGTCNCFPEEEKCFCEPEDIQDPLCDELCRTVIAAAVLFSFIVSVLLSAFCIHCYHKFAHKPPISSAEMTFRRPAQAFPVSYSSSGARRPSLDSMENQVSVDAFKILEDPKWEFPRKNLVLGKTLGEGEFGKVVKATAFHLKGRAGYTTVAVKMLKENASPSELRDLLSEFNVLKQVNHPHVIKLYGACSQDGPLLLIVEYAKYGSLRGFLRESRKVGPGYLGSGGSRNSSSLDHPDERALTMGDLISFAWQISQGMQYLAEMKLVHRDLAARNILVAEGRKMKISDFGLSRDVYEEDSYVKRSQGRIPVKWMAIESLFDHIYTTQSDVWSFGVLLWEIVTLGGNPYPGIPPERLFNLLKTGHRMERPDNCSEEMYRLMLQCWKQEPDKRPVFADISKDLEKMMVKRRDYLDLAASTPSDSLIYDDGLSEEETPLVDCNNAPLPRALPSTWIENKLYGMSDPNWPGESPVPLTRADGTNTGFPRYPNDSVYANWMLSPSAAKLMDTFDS

For orientation: IC50 means the concentration needed to halve the response being measured. For `CCNC(=O)N1Cc2nc(-c3n[nH]c4cc(-c5cc(F)c(O)cc5CC)ccc34)[nH]c2C1` [MDI-247, 2-(6-(2-ethyl-5-fluoro-4-hydroxyphenyl)-1H-indazol-3-yl)-N-ethyl-4,6-dihydropyrrolo[3,4-d]imidazol-5-(1H)-carboxamide], the half-maximal inhibitory concentration (IC50) is 34.2 nM on TRKB (read-out: TRKB IC50, ATP 5 μM); 8.36 nM against RET; 10.3 nM at TRKA (read-out: TRKA IC50, ATP 5 μM); 3.73 nM at TRKC (read-out: TRKC IC50, ATP 5 μM).
As for `CCc1cc(O)c(F)cc1-c1ccc2c(-c3nc4c([nH]3)CN(C(=O)N3CCN(C)CC3)C4)n[nH]c2c1` [MDI-235, (2-(6-(2-ethyl-5-fluoro-4-hydroxyphenyl)-1H-indazol-3-yl)-4,6-dihydropyrrolo[3,4-d]imidazol-5-(1H)-yl)(4-methylpiperazin-1-yl)ketone], the IC50 came out at 1.39 nM against TRKB, 0.1 nM on RET, 0.57 nM against TRKA and 0.27 nM at TRKC.
On to `CCc1cc(O)c(F)cc1-c1ccc2c(-c3nc4c([nH]3)CN(C(=O)N3CCC(O)CC3)C4)n[nH]c2c1` [MDI-245, (2-(6-(2-ethyl-5-fluoro-4-hydroxyphenyl)-1H-indazol-3-yl)-4,6-dihydropyrrolo[3,4-d]imidazol-5(1H)-yl)(4-hydroxylpiperidin-1-yl)ketone], for which the half-inhibitory concentration (IC50) is 3.37 nM on TRKB, 0.99 nM against RET, 0.83 nM at TRKA and 0.57 nM against TRKC.
Regarding `CCC(=O)O[C@]1(C(=O)SCF)[C@H](C)C[C@H]2[C@@H]3C[C@H](F)C4=CC(=O)C=C[C@]4(C)[C@@]3(F)[C@@H](O)C[C@@]21C` [fluticasone propionate, reference compound], the “Nasal mucosa pathology (HE staining)” value in test [1] (MDI-1288 3 mg/kg, fluticasone propionate 10 μl per side, nasal drops twice a day) was “inhibited the progression of rhinitis and promoted repair of cilia on the nasal mucosa”. In test [1] (setting [3]), the Rhinitis behavioral scoring result was “significant effects on inhibiting the rhinitis behavior”.
Consider `CCc1cc(O)c(F)cc1-c1ccc2c(-c3nc4c([nH]3)CN(C(=O)c3cnc(N5CCOCC5)cn3)C4)n[nH]c2c1` [MDI-201, (2-(6-(2-ethyl-5-fluoro-4-hydroxyphenyl)-1H-indazol-3-yl)-4,6-dihydropyrrolo[3,4-d]imidazol-5(1H)-yl)(5-morpholinepyrazin-2-yl)ketone], for which the concentration for half-maximal inhibition (IC50) worked out at 6.14 nM against TRKB, 5.76 nM against TRKA and 2.2 nM on TRKC.
On to `CCc1cc(O)c(F)cc1-c1ccc2c(-c3nc4c([nH]3)CN(C(=O)C3CC3)C4)n[nH]c2c1` [MDI-1233, cyclopropyl (2-(6-(2-ethyl-5-fluoro-4-hydroxyphenyl)-1H-indazol-3-yl)pyrrolo[3,4-d]imidazol-5(1H,4H,6H)-yl)ketone], for which the IC50 was found to be 4.16 nM at TRKB (read-out: TRKB IC50, ATP 5 μM); 4.21 nM against RET; 12.2 nM at TRKA (read-out: TRKA IC50, ATP 5 μM); 5.91 nM on TRKC (read-out: TRKC IC50, ATP 5 μM). For the same compound, the “Nasal mucosa pathology (HE staining)” value is “still accompanied by bleeding, inflammatory cell infiltration, cilia shedding” in test [1] (MDI-1233 1 mg/kg and 3 mg/kg nasal drops twice a day); “the nasal mucosal cilia repair effect was significant” in test [1] (MDI-1233 10 mg/kg nasal drops twice a day). The Rhinitis behavioral scoring entry in test [1] (setting [3]) is “demonstrated inhibitory effects on the male mouse rhinitis model”. In addition, the “Therapeutic effect on the asthma animal model (lung tissue pathological scoring)” value in test [2] is given as “good therapeutic effect”. In addition, the “Bronchoalveolar lavage fluid IL-5 expression level” value in test [2] (setting [4]) was “could reduce IL-5 expression in all three dosage”. Besides, the “Inflammatory cell count in bronchoalveolar lavage fluid” value in test [2] (setting [4]) is “could reduce the Inflammatory Cell Count in all three dosage”. In test [2] (setting [4]), the “Lung tissue inflammatory cell infiltration (HE pathology)” value was “could reduce the lung tissue inflammatory cell infiltration in all three dosage”. Moreover, the “Serum IgE expression level” value in test [2] (setting [4]) is given as “could reduce IgE expression in all three dosage”.

These data come from patent US20250387388A1, “COMPOUND AS TRK INHIBITOR AND/OR RET INHIBITOR AND USE THEREOF” (Medinno Pharmaceutical Technology (Zhuhai) Co., Ltd., priority 2022, published 2025).
